The results in this text go back to BindingDB's records for doi:10.1021/jm070556y (St. Jude Research Hospital, 2007).

Test [1] concerns the target T1, Thyroid hormone receptor beta [209-461] (Homo sapiens, UniProt P10828).
T1 construct: 209-461
T1 sequence (P10828 whole entry): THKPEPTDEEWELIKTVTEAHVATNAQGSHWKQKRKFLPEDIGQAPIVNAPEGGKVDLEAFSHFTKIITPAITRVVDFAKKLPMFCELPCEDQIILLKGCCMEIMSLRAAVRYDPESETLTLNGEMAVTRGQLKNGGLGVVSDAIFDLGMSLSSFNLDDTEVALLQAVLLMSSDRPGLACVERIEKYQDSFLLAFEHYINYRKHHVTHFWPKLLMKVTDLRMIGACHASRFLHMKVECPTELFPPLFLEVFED
In words: Fluorescence Polarization (FP) Competition Assay. The protocol: (§1) IC50 is the concentration of each compound required to inhibit 50% of the binding between the TR LBD and the SRC2-2 peptide using fluorescence polarization (FP) assay. The competition binding experiments were evaluated using PrismPad, and the IC50 values were obtained by fitting the data to an equation, Sigmoidal dose-response (variable slope) or four parameter logistic equation.
A general note: Fluorescence polarisation rises when a labelled molecule tumbles more slowly, as on binding a larger partner.

The target in test [2] is T2, Thyroid hormone receptor alpha [148-410] (Homo sapiens, UniProt P10827).
T2 construct: 148-410
T2 sequence (P10827 whole entry): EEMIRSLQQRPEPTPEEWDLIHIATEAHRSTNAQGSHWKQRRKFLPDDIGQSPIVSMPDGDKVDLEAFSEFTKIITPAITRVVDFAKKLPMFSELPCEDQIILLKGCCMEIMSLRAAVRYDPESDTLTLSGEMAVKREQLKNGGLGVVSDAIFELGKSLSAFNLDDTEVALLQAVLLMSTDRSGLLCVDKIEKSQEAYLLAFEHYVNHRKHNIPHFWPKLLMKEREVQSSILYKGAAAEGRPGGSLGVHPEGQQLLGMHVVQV
As to the kind of experiment: Fluorescence Polarization (FP) Competition Assay. The protocol:
as §1

Usually IC50 stands for the concentration needed to halve the response being measured. Low values mean greater potency, high ones weaker potency.

Consider `C=CC(=O)Oc1ccc2c(c1)CCCC2` [5,6,7,8-tetrahydronaphthalen-2-yl prop-2-enoate], for which the IC50 stood at 69.8 µM in test [1] and 85.3 µM in test [2]. The matching figures for `C=CC(=O)Oc1ccc(NC(=O)CCC)cc1` [4-butanamidophenyl prop-2-enoate]: 85.9 µM and more than 100 µM. With `CCCCCCc1ccc(C(=O)/C=C/C(=O)O)cc1` [(2E)-4-(4-hexylphenyl)-4-oxobut-2-enoic acid], the IC50 in test [1] was determined as 17.7 µM; in test [2] (pH 7.2, 22 °C), 19.2 µM. Take `C=CC(=O)OC1CCC(C(C)(C)CC)CC1` (centres undefined) [4-(2-methylbutan-2-yl)cyclohexyl prop-2-enoate]: the IC50 in test [1] turned out to be 69.1 µM; in test [2], 75.6 µM.

In the case of `C=CC(=O)Oc1ccc(C(=O)OCCCCC)cc1` [pentyl 4-(prop-2-enoyloxy)benzoate], the IC50 in test [1] was 55.8 µM; in test [2] it was more than 100 µM. As for `C=CC(=O)Oc1ccc(CCCCC)cc1` [4-pentylphenyl prop-2-enoate], the IC50 was 33.9 µM in test [1] and 60.9 µM in test [2] (pH 7.2, 22 °C). Take `C=CC(=O)Oc1ccc(CCCCCCC)cc1` [4-heptylphenyl prop-2-enoate]: the IC50 in test [1] turned out to be 10.5 µM; in test [2], 23 µM.

In the case of `C=CC(=O)Oc1ccc(CCC)cc1` [4-propylphenyl prop-2-enoate], in test [1], the IC50 was found to be 100 µM. With `C=CC(=O)Oc1ccc(CCCCCC)cc1` [4-hexylphenyl prop-2-enoate], the IC50 in test [1] was 18.6 µM; in test [2], 45.2 µM. For `C=CC(=O)Oc1ccccc1C(=O)OCCCCCC` [hexyl 2-(prop-2-enoyloxy)benzoate], the values for the IC50 in test [1] and in test [2] were 8.2 µM and 39.1 µM, respectively. As for `C=CC(=O)Oc1ccc(C(=O)OCCC)cc1` [propyl 4-(prop-2-enoyloxy)benzoate], the IC50 is 61 µM in test [1] and more than 100 µM in test [2]. As for `CCCCCCc1ccc(C(=O)CCN2CCCC2)cc1` [1-(4-hexylphenyl)-3-(pyrrolidin-1-yl)propan-1-one], the IC50 came out at 2.7 µM in test [1] and 4.3 µM in test [2] (pH 7.2, 22 °C). Regarding `C=CC(=O)Oc1ccc(C(C)(C)CC)cc1` [4-(2-methylbutan-2-yl)phenyl prop-2-enoate], the IC50 stood at 43.5 µM in test [1] and 69.6 µM in test [2] (pH 7.2, 22 °C).

As to `C=CC(=O)Oc1ccc(CCCCCCCC)cc1` [4-octylphenyl prop-2-enoate], the IC50 in test [1] was determined as 11.4 µM; in test [2] it was 21.4 µM.

`C=CC(=O)Oc1ccc(CCCC)cc1` [4-butylphenyl prop-2-enoate]: the IC50 was 66 µM in test [1] and 71 µM in test [2] (pH 7.2, 22 °C).
